Results: US11767310B2, “Nicotinamide RIPK1 inhibitors” (AbbVie Inc., priority 2021, dated 2023)
Where two headings read alike, the source gives them in different places.

Assays:
Experiment in all cases: Kinase binding screen
Details in all cases: read-out: Percent Control at 100 nM Compound Concentration
EGFR(L858R) = EGFR(L858R) (Homo sapiens (Human), UniProt P00533, L858R)
STK16 = STK16 (Homo sapiens (Human), UniProt O75716)
TXK = TXK (Homo sapiens (Human), UniProt P42681)
EPHA5 = EPHA5 (Homo sapiens (Human), UniProt P54756)
MRCKB = MRCKB (Homo sapiens (Human), UniProt Q9Y5S2)
Sequence of MRCKB (Q9Y5S2 whole entry): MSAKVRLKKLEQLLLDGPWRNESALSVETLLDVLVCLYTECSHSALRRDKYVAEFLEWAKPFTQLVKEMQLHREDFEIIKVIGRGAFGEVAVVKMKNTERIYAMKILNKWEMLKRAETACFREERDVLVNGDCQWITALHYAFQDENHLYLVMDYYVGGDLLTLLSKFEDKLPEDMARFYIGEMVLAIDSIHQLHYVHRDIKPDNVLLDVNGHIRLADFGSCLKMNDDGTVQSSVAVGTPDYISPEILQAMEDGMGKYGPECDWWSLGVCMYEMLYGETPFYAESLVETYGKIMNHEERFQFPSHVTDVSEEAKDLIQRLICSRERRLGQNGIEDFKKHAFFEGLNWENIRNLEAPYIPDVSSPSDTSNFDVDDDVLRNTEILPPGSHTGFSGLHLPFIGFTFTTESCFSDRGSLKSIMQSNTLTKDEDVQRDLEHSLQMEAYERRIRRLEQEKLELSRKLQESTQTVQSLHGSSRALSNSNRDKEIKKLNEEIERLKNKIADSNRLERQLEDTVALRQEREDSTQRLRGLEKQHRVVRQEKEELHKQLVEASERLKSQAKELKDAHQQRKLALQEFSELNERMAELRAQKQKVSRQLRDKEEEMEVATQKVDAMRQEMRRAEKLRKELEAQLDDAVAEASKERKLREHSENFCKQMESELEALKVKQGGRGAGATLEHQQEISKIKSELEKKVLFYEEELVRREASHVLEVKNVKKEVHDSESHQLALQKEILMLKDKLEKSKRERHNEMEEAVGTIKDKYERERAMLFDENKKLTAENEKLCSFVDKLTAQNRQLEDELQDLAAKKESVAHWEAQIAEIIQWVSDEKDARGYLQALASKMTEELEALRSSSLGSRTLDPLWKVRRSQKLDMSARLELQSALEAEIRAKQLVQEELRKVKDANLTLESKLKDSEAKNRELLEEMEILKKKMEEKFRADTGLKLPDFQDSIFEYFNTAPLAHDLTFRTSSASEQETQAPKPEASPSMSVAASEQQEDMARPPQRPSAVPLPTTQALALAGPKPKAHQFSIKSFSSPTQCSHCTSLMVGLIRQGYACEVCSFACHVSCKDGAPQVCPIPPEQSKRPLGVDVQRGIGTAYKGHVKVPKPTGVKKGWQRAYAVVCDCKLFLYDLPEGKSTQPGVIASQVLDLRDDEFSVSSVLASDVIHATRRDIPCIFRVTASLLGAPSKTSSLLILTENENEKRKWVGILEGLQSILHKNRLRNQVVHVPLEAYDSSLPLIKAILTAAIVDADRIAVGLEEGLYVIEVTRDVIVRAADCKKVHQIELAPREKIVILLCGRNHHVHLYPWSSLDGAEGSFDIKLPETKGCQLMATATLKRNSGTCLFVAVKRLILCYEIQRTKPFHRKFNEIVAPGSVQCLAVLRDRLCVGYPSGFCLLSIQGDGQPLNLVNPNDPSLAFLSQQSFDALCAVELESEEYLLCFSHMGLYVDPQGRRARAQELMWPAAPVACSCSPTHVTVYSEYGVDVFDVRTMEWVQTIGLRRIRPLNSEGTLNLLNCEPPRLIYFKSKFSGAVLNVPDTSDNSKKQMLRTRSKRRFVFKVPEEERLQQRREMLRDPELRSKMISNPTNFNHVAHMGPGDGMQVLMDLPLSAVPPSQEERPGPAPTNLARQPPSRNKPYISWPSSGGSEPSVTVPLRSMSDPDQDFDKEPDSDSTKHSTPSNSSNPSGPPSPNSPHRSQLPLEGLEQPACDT

NEK7 = NEK7 (Homo sapiens (Human), UniProt Q8TDX7)
PIK3CB = PIK3CB (Homo sapiens (Human), UniProt P42338)
SYK = SYK (Homo sapiens (Human), UniProt P43405)
PHKG1 = PHKG1 (Homo sapiens (Human), UniProt Q16816)
MST2 = MST2 (Homo sapiens (Human), UniProt Q13188)
GSK3A = GSK3A (Homo sapiens (Human), UniProt P49840)
MAP3K4 = MAP3K4 (Homo sapiens (Human), UniProt Q9Y6R4)
Sequence of MAP3K4 (Q9Y6R4 whole entry): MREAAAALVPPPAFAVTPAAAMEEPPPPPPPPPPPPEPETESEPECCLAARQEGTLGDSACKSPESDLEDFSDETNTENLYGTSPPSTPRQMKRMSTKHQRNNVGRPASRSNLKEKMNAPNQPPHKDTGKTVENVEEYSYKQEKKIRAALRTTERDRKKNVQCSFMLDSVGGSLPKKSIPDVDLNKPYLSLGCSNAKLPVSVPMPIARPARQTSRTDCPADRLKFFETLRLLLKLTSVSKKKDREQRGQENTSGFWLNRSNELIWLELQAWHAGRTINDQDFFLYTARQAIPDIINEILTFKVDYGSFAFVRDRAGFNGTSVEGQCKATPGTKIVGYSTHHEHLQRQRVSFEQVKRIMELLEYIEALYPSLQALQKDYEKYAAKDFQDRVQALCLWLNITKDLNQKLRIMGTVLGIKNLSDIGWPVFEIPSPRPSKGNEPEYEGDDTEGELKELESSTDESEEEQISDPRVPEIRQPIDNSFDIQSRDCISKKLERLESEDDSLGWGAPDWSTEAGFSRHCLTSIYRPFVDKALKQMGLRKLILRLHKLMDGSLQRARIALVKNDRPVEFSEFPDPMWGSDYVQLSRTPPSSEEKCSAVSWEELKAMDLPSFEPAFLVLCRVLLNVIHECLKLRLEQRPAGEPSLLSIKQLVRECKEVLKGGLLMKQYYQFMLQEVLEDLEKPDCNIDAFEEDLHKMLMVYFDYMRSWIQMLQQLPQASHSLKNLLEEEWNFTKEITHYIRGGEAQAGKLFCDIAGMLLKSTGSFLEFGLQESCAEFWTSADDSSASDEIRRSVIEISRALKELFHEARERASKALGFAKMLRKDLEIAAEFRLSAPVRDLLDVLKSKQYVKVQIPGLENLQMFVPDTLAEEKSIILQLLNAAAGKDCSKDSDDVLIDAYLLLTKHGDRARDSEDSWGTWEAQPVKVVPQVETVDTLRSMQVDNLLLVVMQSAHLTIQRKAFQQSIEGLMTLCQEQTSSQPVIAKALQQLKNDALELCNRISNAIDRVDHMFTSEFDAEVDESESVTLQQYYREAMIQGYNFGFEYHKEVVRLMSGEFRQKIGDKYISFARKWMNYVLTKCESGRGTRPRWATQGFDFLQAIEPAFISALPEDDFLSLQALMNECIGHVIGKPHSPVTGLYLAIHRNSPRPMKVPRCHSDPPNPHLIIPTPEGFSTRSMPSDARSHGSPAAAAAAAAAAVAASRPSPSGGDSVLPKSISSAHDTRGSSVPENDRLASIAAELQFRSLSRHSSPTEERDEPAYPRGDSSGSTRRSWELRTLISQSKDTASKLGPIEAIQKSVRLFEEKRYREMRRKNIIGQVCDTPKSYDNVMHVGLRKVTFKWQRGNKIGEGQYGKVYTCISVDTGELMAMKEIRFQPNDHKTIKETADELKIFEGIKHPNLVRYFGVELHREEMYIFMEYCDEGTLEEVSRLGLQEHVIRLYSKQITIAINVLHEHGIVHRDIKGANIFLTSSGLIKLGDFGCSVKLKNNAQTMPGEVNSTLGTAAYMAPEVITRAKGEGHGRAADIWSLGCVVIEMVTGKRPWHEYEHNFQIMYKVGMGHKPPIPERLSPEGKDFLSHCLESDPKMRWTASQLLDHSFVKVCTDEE

CLK2 = CLK2 (Homo sapiens (Human), UniProt P49760)
MARK3 = MARK3 (Homo sapiens (Human), UniProt P27448)
PRKG2 = PRKG2 (Homo sapiens (Human), UniProt Q13237)
DMPK = DMPK (Homo sapiens (Human), UniProt Q09013)
MAK = MAK (Homo sapiens (Human), UniProt P20794)
CLK4 = CLK4 (Homo sapiens (Human), UniProt Q9HAZ1)
MARK2 = MARK2 (Homo sapiens (Human), UniProt Q7KZI7)
CDKL5 = CDKL5 (Homo sapiens (Human), UniProt O76039)
ROS1 = ROS1 (Homo sapiens (Human), UniProt P08922)
ROCK1 = ROCK1 (Homo sapiens (Human), UniProt Q13464)
EPHA4 = EPHA4 (Homo sapiens (Human), UniProt P54764)
TGFBR2 = TGFBR2 (Homo sapiens (Human), UniProt P37173)
FLT3-autoinhibited = FLT3-autoinhibited (Homo sapiens (Human), UniProt P36888)
Sequence of FLT3-autoinhibited (P36888 564-993 limits assumed): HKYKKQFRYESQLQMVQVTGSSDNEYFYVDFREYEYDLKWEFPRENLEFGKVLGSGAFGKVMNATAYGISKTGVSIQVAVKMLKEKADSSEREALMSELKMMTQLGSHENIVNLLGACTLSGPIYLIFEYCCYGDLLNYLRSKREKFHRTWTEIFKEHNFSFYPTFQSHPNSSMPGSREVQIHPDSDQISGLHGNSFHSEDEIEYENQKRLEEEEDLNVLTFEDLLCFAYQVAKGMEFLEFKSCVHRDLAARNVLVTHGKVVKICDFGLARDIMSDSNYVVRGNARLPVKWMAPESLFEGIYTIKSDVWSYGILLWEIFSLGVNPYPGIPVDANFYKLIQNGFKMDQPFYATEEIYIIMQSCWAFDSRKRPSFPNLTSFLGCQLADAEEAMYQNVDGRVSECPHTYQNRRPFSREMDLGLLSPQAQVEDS

AMPK-alpha2 = AMPK-alpha2 (Homo sapiens (Human), UniProt P54646)
CSK = CSK (Homo sapiens (Human), UniProt P41240)
p38-beta = p38-beta (Homo sapiens (Human), UniProt Q15759)
Sequence of p38-beta (Q15759 whole entry): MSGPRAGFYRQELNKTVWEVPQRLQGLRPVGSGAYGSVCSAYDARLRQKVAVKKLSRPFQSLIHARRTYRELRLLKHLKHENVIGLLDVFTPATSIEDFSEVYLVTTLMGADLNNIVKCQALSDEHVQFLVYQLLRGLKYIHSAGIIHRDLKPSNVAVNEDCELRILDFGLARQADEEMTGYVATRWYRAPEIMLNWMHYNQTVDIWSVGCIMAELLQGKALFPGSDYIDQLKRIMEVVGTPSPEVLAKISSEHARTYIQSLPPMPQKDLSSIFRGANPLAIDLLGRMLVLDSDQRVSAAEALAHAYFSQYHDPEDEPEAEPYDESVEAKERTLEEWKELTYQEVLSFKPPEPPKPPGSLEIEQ

TRKB = TRKB (Homo sapiens (Human), UniProt Q16620)
Sequence of TRKB (Q16620 32-822): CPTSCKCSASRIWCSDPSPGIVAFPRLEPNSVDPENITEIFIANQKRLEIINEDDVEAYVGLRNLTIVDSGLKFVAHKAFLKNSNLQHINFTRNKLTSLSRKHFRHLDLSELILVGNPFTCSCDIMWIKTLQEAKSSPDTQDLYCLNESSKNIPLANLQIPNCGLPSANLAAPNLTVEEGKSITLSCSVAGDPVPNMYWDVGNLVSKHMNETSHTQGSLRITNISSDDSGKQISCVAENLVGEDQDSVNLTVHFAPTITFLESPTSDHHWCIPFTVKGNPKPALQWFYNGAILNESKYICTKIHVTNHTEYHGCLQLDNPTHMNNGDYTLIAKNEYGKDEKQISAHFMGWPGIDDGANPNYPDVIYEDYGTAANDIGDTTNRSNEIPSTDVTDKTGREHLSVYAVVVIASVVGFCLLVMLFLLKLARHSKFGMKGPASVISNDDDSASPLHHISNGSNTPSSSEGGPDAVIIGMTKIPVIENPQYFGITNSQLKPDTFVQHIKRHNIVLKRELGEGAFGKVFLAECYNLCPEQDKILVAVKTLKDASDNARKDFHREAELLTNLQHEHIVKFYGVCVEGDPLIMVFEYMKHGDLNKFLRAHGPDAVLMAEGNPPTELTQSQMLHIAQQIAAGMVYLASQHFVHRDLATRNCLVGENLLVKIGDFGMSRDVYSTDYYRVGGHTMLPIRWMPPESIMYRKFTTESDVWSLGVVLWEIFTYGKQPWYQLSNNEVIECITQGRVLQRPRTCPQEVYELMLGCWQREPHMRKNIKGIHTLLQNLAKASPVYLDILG

CHEK2 = CHEK2 (Homo sapiens (Human), UniProt O96017)

For `CN(C[C@@H](O)Cc1ccccc1)C(=O)c1cncc(C#Cc2cnn(C(F)F)c2)c1` [Example 2, (S)-5-((1-(difluoromethyl)-1H-pyrazol-4-yl)ethynyl)-N-(2-hydroxy-3-phenylpropyl)-N-methylnicotinamide], the remaining activity at 0.1 µM (EGFR(L858R); EGFR(L858R)) was 100%, the remaining activity at 0.1 µM (STK16; STK16) was 98% and the remaining activity at 0.1 µM (TXK; TXK) was 100%. It also gave a remaining activity at 0.1 µM (EPHA5; EPHA5) of 100%, a remaining activity at 0.1 µM (MRCKB; MRCKB) of 95% and a remaining activity at 0.1 µM (NEK7; NEK7) of 100%. The remaining activity at 0.1 µM (PIK3CB; PIK3CB) was 100%, the remaining activity at 0.1 µM (SYK; SYK) was 97% and the remaining activity at 0.1 µM (PHKG1; PHKG1) was 100%. The remaining activity at 0.1 µM (MST2; MST2) was 100%, the remaining activity at 0.1 µM (GSK3A; GSK3A) was 100% and the remaining activity at 0.1 µM (MAP3K4; MAP3K4) was 100%. For the same molecule, the remaining activity at 0.1 µM (CLK2; CLK2) was 95%, the remaining activity at 0.1 µM (MARK3; MARK3) was 98% and the remaining activity at 0.1 µM (PRKG2; PRKG2) was 100%. For the same molecule, the remaining activity at 0.1 µM (DMPK; DMPK) was 100%, the remaining activity at 0.1 µM (MAK; MAK) was 100% and the remaining activity at 0.1 µM (CLK4; CLK4) was 92%. It also gave a remaining activity at 0.1 µM (MARK2; MARK2) of 96%, a remaining activity at 0.1 µM (CDKL5; CDKL5) of 93% and a remaining activity at 0.1 µM (ROS1; ROS1) of 100%. For the same molecule, the remaining activity at 0.1 µM (ROCK1; ROCK1) was 100%, the remaining activity at 0.1 µM (EPHA4; EPHA4) was 97% and the remaining activity at 0.1 µM (TGFBR2; TGFBR2) was 100%. The remaining activity at 0.1 µM (FLT3-autoinhibited; FLT3-autoinhibited) was 95%, the remaining activity at 0.1 µM (AMPK-alpha2; AMPK-alpha2) was 89% and the remaining activity at 0.1 µM (CSK; CSK) was 98%. For the same molecule, the remaining activity at 0.1 µM (p38-beta; p38-beta) was 100%, the remaining activity at 0.1 µM (TRKB; TRKB) was 100% and the remaining activity at 0.1 µM (CHEK2; CHEK2) was 100%.
In the case of `CN(C[C@H](Cc1ccccc1)OP(=O)(O)O)C(=O)c1cncc(C#Cc2cnn(C(F)F)c2)c1` [Example 19, (S)-1-(5-((1-(difluoromethyl)-1H-pyrazol-4-yl)ethynyl)-N-methylnicotinamido)-3-phenylpropan-2-yl dihydrogen phosphate], the remaining activity at 0.1 µM (EGFR(L858R)) is reported as 94%, the remaining activity at 0.1 µM (STK16) is reported as 92% and the remaining activity at 0.1 µM (TXK) is reported as 100%. For the same molecule, the remaining activity at 0.1 µM (EPHA5) was 100%, the remaining activity at 0.1 µM (MRCKB) was 100% and the remaining activity at 0.1 µM (NEK7) was 99%. For the same molecule, the remaining activity at 0.1 µM (PIK3CB) was 95%, the remaining activity at 0.1 µM (SYK) was 93% and the remaining activity at 0.1 µM (PHKG1) was 100%. It also gave a remaining activity at 0.1 µM (MST2) of 99%, a remaining activity at 0.1 µM (GSK3A) of 100% and a remaining activity at 0.1 µM (MAP3K4) of 100%. For the same molecule, the remaining activity at 0.1 µM (CLK2) was 100%, the remaining activity at 0.1 µM (MARK3) was 97% and the remaining activity at 0.1 µM (PRKG2) was 97%. It also gave a remaining activity at 0.1 µM (DMPK) of 100%, a remaining activity at 0.1 µM (MAK) of 100% and a remaining activity at 0.1 µM (CLK4) of 100%. It also gave a remaining activity at 0.1 µM (MARK2) of 100%, a remaining activity at 0.1 µM (CDKL5) of 86% and a remaining activity at 0.1 µM (ROS1) of 91%. The remaining activity at 0.1 µM (ROCK1) was 100%, the remaining activity at 0.1 µM (EPHA4) was 96% and the remaining activity at 0.1 µM (TGFBR2) was 100%. For the same molecule, the remaining activity at 0.1 µM (FLT3-autoinhibited) was 96%, the remaining activity at 0.1 µM (AMPK-alpha2) was 100% and the remaining activity at 0.1 µM (CSK) was 93%. The remaining activity at 0.1 µM (p38-beta) was 97%, the remaining activity at 0.1 µM (TRKB) was 94% and the remaining activity at 0.1 µM (CHEK2) was 100%.
